In ChEMBL document CHEMBL3414487, “Synthesis and biological activity of salinomycin conjugates with floxuridine” (Eur J Med Chem, 2015):
Converted amounts (≈) assume the structure as drawn.

Key:
[1] = Antiproliferative activity against human HL60 cells assessed as growth inhibition after 72 hrs by MTT assay; assay type: functional, cell-based; conditions: HL-60, 72 h
[2] = Antiproliferative activity against human vincristine-resistant HL60/Vinc cells assessed as growth inhibition after 72 hrs by MTT assay; assay type: functional; conditions: Homo sapiens, HL60/vinc, 72 h
[3] = system: LoVo; test: Antiproliferative activity against human LoVo cells assessed as growth inhibition after 72 hrs by SRB method; assay type: functional, cell-based; conditions: Homo sapiens, LoVo, 72 h
[4] = Antiproliferative activity against human doxorubicin-resistant LoVo/DX cells assessed as growth inhibition after 72 hrs by SRB method; assay type: functional, cell-based
[5] = system: HT-29; test: Antiproliferative activity against human HT-29 cells assessed as growth inhibition after 72 hrs by SRB method; assay type: functional, cell-based; conditions: Homo sapiens, HT-29, 72 h
[6] = Antiproliferative activity against human LS180 cells assessed as growth inhibition after 72 hrs by SRB method; assay type: functional, cell-based; conditions: Homo sapiens, LS180, 72 h
[7] = Antiproliferative activity against human SW707 cells assessed as growth inhibition after 72 hrs by SRB method; assay type: functional, cell-based; conditions: Homo sapiens, SW707, 72 h
[8] = system: BALB/3T3; test: Antiproliferative activity against mouse BALB/3T3 cells assessed as growth inhibition after 72 hrs by SRB method; assay type: cell-based; conditions: BALB/3T3, 72 h
[9] = system: HL-60; test: Selectivity index, ratio of IC50 for mouse BALB/3T3 cells to IC50 for human HL60 cells; assay type: functional
[10] = Selectivity index, ratio of IC50 for mouse BALB/3T3 cells to IC50 for human HL60/Vinc cells; assay type: functional
[11] = system: LoVo; test: Selectivity index, ratio of IC50 for mouse BALB/3T3 cells to IC50 for human LoVo cells; assay type: functional
[12] = Selectivity index, ratio of IC50 for mouse BALB/3T3 cells to IC50 for human LoVo/DX cells; assay type: functional
[13] = system: HT-29; test: Selectivity index, ratio of IC50 for mouse BALB/3T3 cells to IC50 for human HT-29 cells; assay type: functional
[14] = Selectivity index, ratio of IC50 for mouse BALB/3T3 cells to IC50 for human LS180 cells; assay type: functional
[15] = Selectivity index, ratio of IC50 for mouse BALB/3T3 cells to IC50 for human SW707 cells; assay type: functional
[16] = system: HL-60; test: Resistance index, ratio of IC50 for human HL60/Vinc cells to IC50 for human HL60 cells
[17] = system: LoVo; test: Resistance index, ratio of IC50 for human LoVo/DX cells to IC50 for human LoVo cells
[18] = system: Staphylococcus aureus; test: Antimicrobial activity against Staphylococcus aureus […] 4163 after 18 hrs by two-fold serial microdilution method; assay type: functional
[19] = system: Staphylococcus aureus; test: Antimicrobial activity against Staphylococcus aureus ATCC 25923 after 18 hrs by two-fold serial microdilution method; assay type: functional; conditions: ATCC 25923, 18 h
[20] = system: Staphylococcus aureus; test: Antimicrobial activity against Staphylococcus aureus ATCC 6538 after 18 hrs by two-fold serial microdilution method; assay type: functional; conditions: ATCC 6538, 18 h
[21] = system: Staphylococcus aureus; test: Antimicrobial activity against Staphylococcus aureus ATCC 29213 after 18 hrs by two-fold serial microdilution method; assay type: functional; conditions: ATCC 29213, 18 h
[22] = system: Staphylococcus epidermidis; test: Antimicrobial activity against Staphylococcus epidermidis ATCC 12228 after 18 hrs by two-fold serial microdilution method; assay type: functional; conditions: ATCC 12228, 18 h
[23] = system: Staphylococcus epidermidis; test: Antimicrobial activity against Staphylococcus epidermidis ATCC 35984 after 18 hrs by two-fold serial microdilution method; assay type: functional; conditions: ATCC 35984, 18 h
[24] = system: Staphylococcus aureus; test: Antimicrobial activity against methicillin-resistant Staphylococcus aureus 452/11 after 18 hrs by two-fold serial microdilution method; assay type: functional; conditions: 452/11, 18 h
[25] = system: Staphylococcus aureus; test: Antimicrobial activity against methicillin-resistant Staphylococcus aureus 456/11 after 18 hrs by two-fold serial microdilution method; assay type: functional; conditions: 456/11, 18 h
[26] = system: Staphylococcus aureus; test: Antimicrobial activity against methicillin-resistant Staphylococcus aureus 462/11 after 18 hrs by two-fold serial microdilution method; assay type: functional; conditions: 462/11, 18 h
[27] = system: Staphylococcus aureus; test: Antimicrobial activity against methicillin-resistant Staphylococcus aureus 514/11 after 18 hrs by two-fold serial microdilution method; assay type: functional; conditions: 514/11, 18 h
[28] = system: Staphylococcus aureus; test: Antimicrobial activity against methicillin-resistant Staphylococcus aureus 522/12 after 18 hrs by two-fold serial microdilution method; assay type: functional; conditions: 522/12, 18 h
[29] = system: Staphylococcus aureus; test: Antimicrobial activity against methicillin-resistant Staphylococcus aureus 537/12 after 18 hrs by two-fold serial microdilution method; assay type: functional; conditions: 537/12, 18 h
[30] = system: Staphylococcus aureus; test: Antimicrobial activity against methicillin-resistant Staphylococcus aureus 572/12 after 18 hrs by two-fold serial microdilution method; assay type: functional; conditions: 572/12, 18 h
[31] = system: Staphylococcus aureus; test: Antimicrobial activity against methicillin-resistant Staphylococcus aureus 573/12 after 18 hrs by two-fold serial microdilution method; assay type: functional; conditions: 573/12, 18 h
[32] = system: Staphylococcus aureus; test: Antimicrobial activity against methicillin-resistant Staphylococcus aureus 585/12 after 18 hrs by two-fold serial microdilution method; assay type: functional; conditions: 585/12, 18 h
[33] = system: Staphylococcus aureus; test: Antimicrobial activity against methicillin-resistant Staphylococcus aureus 586/12 after 18 hrs by two-fold serial microdilution method; assay type: functional; conditions: 586/12, 18 h
[34] = system: Staphylococcus epidermidis; test: Antimicrobial activity against methicillin-resistant Staphylococcus epidermidis 459/11 after 18 hrs by two-fold serial microdilution method; assay type: functional; conditions: 459/11, 18 h
[35] = system: Staphylococcus epidermidis; test: Antimicrobial activity against methicillin-resistant Staphylococcus epidermidis 460/11 after 18 hrs by two-fold serial microdilution method; assay type: functional; conditions: 460/11, 18 h
[36] = system: Staphylococcus epidermidis; test: Antimicrobial activity against methicillin-resistant Staphylococcus epidermidis 461/11 after 18 hrs by two-fold serial microdilution method; assay type: functional; conditions: 461/11, 18 h
[37] = system: Staphylococcus epidermidis; test: Antimicrobial activity against methicillin-resistant Staphylococcus epidermidis 466/11 after 18 hrs by two-fold serial microdilution method; assay type: functional; conditions: 466/11, 18 h
[38] = system: Staphylococcus epidermidis; test: Antimicrobial activity against methicillin-resistant Staphylococcus epidermidis 467/11 after 18 hrs by two-fold serial microdilution method; assay type: functional; conditions: 467/11, 18 h
[39] = system: Staphylococcus epidermidis; test: Antimicrobial activity against methicillin-resistant Staphylococcus epidermidis 468/11 after 18 hrs by two-fold serial microdilution method; assay type: functional; conditions: 468/11, 18 h
[40] = system: Staphylococcus epidermidis; test: Antimicrobial activity against methicillin-resistant Staphylococcus epidermidis 469/11 after 18 hrs by two-fold serial microdilution method; assay type: functional; conditions: 469/11, 18 h
[41] = system: Staphylococcus epidermidis; test: Antimicrobial activity against methicillin-resistant Staphylococcus epidermidis 470/11 after 18 hrs by two-fold serial microdilution method; assay type: functional; conditions: 470/11, 18 h
[42] = system: Staphylococcus epidermidis; test: Antimicrobial activity against methicillin-resistant Staphylococcus epidermidis 488/11 after 18 hrs by two-fold serial microdilution method; assay type: functional; conditions: 488/11, 18 h
[43] = system: Staphylococcus epidermidis; test: Antimicrobial activity against methicillin-resistant Staphylococcus epidermidis 489/11 after 18 hrs by two-fold serial microdilution method; assay type: functional; conditions: 489/11, 18 h

## O=c1[nH]cc(F)c(=O)[nH]1 [FLUOROURACIL]
[1]
  IC50: 22.5 µM
[2]
  IC50: 21.2 µM
[3]
  IC50: 4.69 µM
[4]
  IC50: 6 µM
[5]
  IC50: 25.1 µM
[6]
  IC50: 38.9 µM
[7]
  IC50: 20.5 µM
[8]
  IC50: 3.23 µM
[9]
  Selectivity Index: 0.14
[10]
  Selectivity Index: 0.15
[11]
  Selectivity Index: 0.69
[12]
  Selectivity Index: 0.54
[13]
  Selectivity Index: 0.13
[14]
  Selectivity Index: 0.08
[15]
  Selectivity Index: 0.16
[16]
  Ratio IC50: 0.94
[17]
  Ratio IC50: 1.28
[18]
  MIC: 1.92 µM (≈ 0.25 µg/mL)
[19]
  MIC: 1.92 µM (≈ 0.25 µg/mL)
[20]
  MIC: 3.85 µM (≈ 0.501 µg/mL)
[21]
  MIC: 3.85 µM (≈ 0.501 µg/mL)
[22]
  MIC: 3.85 µM (≈ 0.501 µg/mL)
[23]
  MIC: 1.92 µM (≈ 0.25 µg/mL)
[24]
  MIC: 3.85 µM (≈ 0.501 µg/mL)
[25]
  MIC: 3.85 µM (≈ 0.501 µg/mL)
[26]
  MIC: 7.69 µM (≈ 1 µg/mL)
[27]
  MIC: 3.85 µM (≈ 0.501 µg/mL)
[28]
  MIC: 7.69 µM (≈ 1 µg/mL)
[29]
  MIC: 7.69 µM (≈ 1 µg/mL)
[30]
  MIC: 3.85 µM (≈ 0.501 µg/mL)
[31]
  MIC: 3.85 µM (≈ 0.501 µg/mL)
[32]
  MIC: 3.85 µM (≈ 0.501 µg/mL)
[33]
  MIC: 3.85 µM (≈ 0.501 µg/mL)
[34]
  MIC: 3.85 µM (≈ 0.501 µg/mL)
[35]
  MIC: 1.92 µM (≈ 0.25 µg/mL)
[36]
  MIC: 0.96 µM (≈ 0.125 µg/mL)
[37]
  MIC: 0.48 µM (≈ 0.0624 µg/mL)
[38]
  MIC: 0.48 µM (≈ 0.0624 µg/mL)
[39]
  MIC: 0.48 µM (≈ 0.0624 µg/mL)
[40]
  MIC: 1.92 µM (≈ 0.25 µg/mL)
[41]
  MIC: 0.48 µM (≈ 0.0624 µg/mL)
[42]
  MIC: 1.92 µM (≈ 0.25 µg/mL)
[43]
  MIC: 0.48 µM (≈ 0.0624 µg/mL)

## CC[C@@H](C(=O)[C@@H](C)[C@@H](O)[C@H](C)[C@@H]1O[C@@H]([C@@H](CC)C(=O)O)CC[C@@H]1C)[C@H]1O[C@]2(C=C[C@@H](O)[C@]3(CC[C@@](C)([C@H]4CC[C@](O)(CC)[C@H](C)O4)O3)O2)[C@H](C)C[C@@H]1C [SALINOMYCIN]
[1]
  IC50: 0.29 µM
[2]
  IC50: 2.09 µM
[3]
  IC50: 0.36 µM
[4]
  IC50: 0.76 µM
[5]
  IC50: 1.03 µM
[6]
  IC50: 0.61 µM
[7]
  IC50: 1.73 µM
[8]
  IC50: 9.33 µM
[9]
  Selectivity Index: 32.17
[10]
  Selectivity Index: 4.46
[11]
  Selectivity Index: 25.92
[12]
  Selectivity Index: 12.28
[13]
  Selectivity Index: 9.06
[14]
  Selectivity Index: 15.3
[15]
  Selectivity Index: 5.39
[16]
  Ratio IC50: 7.21
[17]
  Ratio IC50: 2.11
[18]
  MIC: 2.66 µM (≈ 2 µg/mL)
[19]
  MIC: 2.66 µM (≈ 2 µg/mL)
[20]
  MIC: 2.66 µM (≈ 2 µg/mL)
[21]
  MIC: 2.66 µM (≈ 2 µg/mL)
[22]
  MIC: 2.66 µM (≈ 2 µg/mL)
[23]
  MIC: 2.66 µM (≈ 2 µg/mL)
[24]
  MIC: 1.33 µM (≈ 0.999 µg/mL)
[25]
  MIC: 1.33 µM (≈ 0.999 µg/mL)
[26]
  MIC: 2.66 µM (≈ 2 µg/mL)
[27]
  MIC: 2.66 µM (≈ 2 µg/mL)
[28]
  MIC: 2.66 µM (≈ 2 µg/mL)
[29]
  MIC: 2.66 µM (≈ 2 µg/mL)
[30]
  MIC: 1.33 µM (≈ 0.999 µg/mL)
[31]
  MIC: 1.33 µM (≈ 0.999 µg/mL)
[32]
  MIC: 2.66 µM (≈ 2 µg/mL)
[33]
  MIC: 2.66 µM (≈ 2 µg/mL)
[34]
  MIC: 2.66 µM (≈ 2 µg/mL)
[35]
  MIC: 2.66 µM (≈ 2 µg/mL)
[36]
  MIC: 2.66 µM (≈ 2 µg/mL)
[37]
  MIC: 2.66 µM (≈ 2 µg/mL)
[38]
  MIC: 2.66 µM (≈ 2 µg/mL)
[39]
  MIC: 2.66 µM (≈ 2 µg/mL)
[40]
  MIC: 2.66 µM (≈ 2 µg/mL)
[41]
  MIC: 2.66 µM (≈ 2 µg/mL)
[42]
  MIC: 2.66 µM (≈ 2 µg/mL)
[43]
  MIC: 2.66 µM (≈ 2 µg/mL)
